Measured values published in PubChem BioAssay AID248 (DTP/NCI, 2004).
Where “and” joins values, the source holds several entries; their conditions need not be identical. Equal entries are not always repeated. Inconclusive results and toxic doses are left out.

System: L1210 leukemia ip in BDF1 mice, survival T/C
Assay: NCI In Vivo Anticancer Drug Screen. Data for tumor model L1210 Leukemia (intraperitoneal) in B6D2F1 (BDF1) mice
Settings: endpoint: mean survival time, higher = longer survival
Procedure: The antitumor activity of compounds was measured in mice bearing transplantable tumors. Survival or tumor size were measured and the results are expressed as the measurement made in the treated group (T) divided by the measurement made in the vehicle treated control group (C). The tumor model used in this assay is L1210 Leukemia (intraperitoneal) in B6D2F1 (BDF1) mice

[1] = dose: 100.0 mg/kg/injection, schedule: Q01DX001 (ip), vehicle: saline
[2] = dose: 200.0 mg/kg/injection, schedule: Q01DX001 (ip), vehicle: saline
[3] = dose: 400.0 mg/kg/injection, schedule: Q01DX001 (ip), vehicle: saline
[4] = dose: 50.0 mg/kg/injection, schedule: Q01DX001 (ip), vehicle: saline
[5] = dose: 100.0 mg/kg/injection, schedule: Q04DX003 (ip), vehicle: Klucel (hydroxypropylcellulose) (HPC)
[6] = dose: 200.0 mg/kg/injection, schedule: Q04DX003 (ip), vehicle: Klucel (hydroxypropylcellulose) (HPC)
[7] = dose: 400.0 mg/kg/injection, schedule: Q04DX003 (ip), vehicle: Klucel (hydroxypropylcellulose) (HPC)

CN(N=O)C(=O)NCCSSCCNC(=O)N(C)N=O
T/C (dose: 5.0 mg/kg/injection, schedule: Q01DX011 (ip), vehicle: carboxymethylcellulose (CMC)): 107 % of control | T/C (dose: 5.0 mg/kg/injection, schedule: Q01DX Z (ip), vehicle: carboxymethylcellulose (CMC)): 104 % of control | T/C (dose: 10.0 mg/kg/injection, schedule: Q01DX011 (ip), vehicle: carboxymethylcellulose (CMC)): 102 % of control | T/C (dose: 10.0 mg/kg/injection, schedule: Q01DX Z (ip), vehicle: carboxymethylcellulose (CMC)): 104 % of control | T/C (dose: 20.0 mg/kg/injection, schedule: Q01DX011 (ip), vehicle: carboxymethylcellulose (CMC)): 112 % of control | T/C (dose: 20.0 mg/kg/injection, schedule: Q01DX Z (ip), vehicle: carboxymethylcellulose (CMC)): 112 % of control | T/C (dose: 40.0 mg/kg/injection, schedule: Q01DX011 (ip), vehicle: carboxymethylcellulose (CMC)): 161 % of control | T/C (dose: 40.0 mg/kg/injection, schedule: Q01DX Z (ip), vehicle: carboxymethylcellulose (CMC)): 119 % of control

COC(C(=O)C(O)C(C)O)C1CC2C=C3C=C(OC4CC(OC5CC(O)C(OC)C(C)O5)C(OC(C)=O)C(C)O4)C(C)C(=O)C3=C(O)C2=C(O)C1OC1CC(OC2CC(OC3CC(C)(O)C(OC(=O)C(C)C)C(C)O3)C(O)C(C)O2)C(O)C(C)O1 (configuration not stated)
T/C (dose: 0.25 mg/kg/injection, schedule: Q01DX001 (ip), vehicle: other): 121 % of control | T/C (dose: 0.5 mg/kg/injection, schedule: Q01DX001 (ip), vehicle: other): 113 % of control | T/C (dose: 1.0 micrograms/kg/injection, schedule: Q01DX009 (ip), vehicle: other): 111 % of control | T/C (dose: 1.0 micrograms/kg/injection, schedule: Q01DX009 (ip), vehicle: saline): 111 % of control | T/C (dose: 2.0 micrograms/kg/injection, schedule: Q01DX009 (ip), vehicle: other): 105 % of control | T/C (dose: 2.0 micrograms/kg/injection, schedule: Q01DX009 (ip), vehicle: saline): 117 % of control | T/C (dose: 4.0 micrograms/kg/injection, schedule: Q01DX009 (ip), vehicle: other): 109 % of control | T/C (dose: 4.0 micrograms/kg/injection, schedule: Q01DX009 (ip), vehicle: saline): 117 % of control | T/C (dose: 5.0 micrograms/kg/injection, schedule: Q01DX001 (ip), vehicle: saline): 114 % of control | T/C (dose: 8.0 micrograms/kg/injection, schedule: Q01DX009 (ip), vehicle: other): 121 % of control | T/C (dose: 10.0 micrograms/kg/injection, schedule: Q01DX001 (ip), vehicle: saline): 123 % of control | T/C (dose: 16.0 micrograms/kg/injection, schedule: Q01DX009 (ip), vehicle: other): 118 % of control | T/C (dose: 16.0 micrograms/kg/injection, schedule: Q01DX009 (ip), vehicle: saline): 117 % of control | T/C (dose: 20.0 micrograms/kg/injection, schedule: Q01DX001 (ip), vehicle: saline): 114 % of control | T/C (dose: 32.0 micrograms/kg/injection, schedule: Q01DX009 (ip), vehicle: saline): 112 % of control | T/C (dose: 37.0 micrograms/kg/injection, schedule: Q01DX009 (ip), vehicle: other): 110 % of control | T/C (dose: 40.0 micrograms/kg/injection, schedule: Q01DX001 (ip), vehicle: saline): 120 % of control | T/C (dose: 62.5 micrograms/kg/injection, schedule: Q04DX003 (ip), vehicle: saline): 107 % of control | T/C (dose: 80.0 micrograms/kg/injection, schedule: Q01DX001 (ip), vehicle: saline): 103 % of control | T/C (dose: 125.0 micrograms/kg/injection, schedule: Q01DX001 (ip), vehicle: saline): 151 % of control and 331 % of control | T/C (dose: 125.0 micrograms/kg/injection, schedule: Q04DX003 (ip), vehicle: saline): 104 % of control | T/C (dose: 125.0 micrograms/kg/injection, schedule: Q08DX002 (ip), vehicle: saline): 163 % of control | T/C (dose: 250.0 micrograms/kg/injection, schedule: Q01DX001 (ip), vehicle: saline): 116 % of control and 198 % of control and 283 % of control

OC1(C#CC2(O)CCCC2)CCCC1
T/C (dose: 50.0 mg/kg/injection, schedule: Q01DX001 (ip), vehicle: carboxymethylcellulose (CMC)): 98 % of control | T/C (dose: 100.0 mg/kg/injection, schedule: Q01DX001 (ip), vehicle: carboxymethylcellulose (CMC)): 95 % of control | T/C (dose: 200.0 mg/kg/injection, schedule: Q01DX001 (ip), vehicle: carboxymethylcellulose (CMC)): 87 % of control | T/C (dose: 400.0 mg/kg/injection, schedule: Q01DX001 (ip), vehicle: carboxymethylcellulose (CMC)): 93 % of control

COc1ccc2[nH]c(-c3ccccc3)cc2c1
T/C (dose: 25.0 mg/kg/injection, schedule: Q01DX009 (ip), vehicle: saline with Tween-80): 100 % of control | T/C (dose: 50.0 mg/kg/injection, schedule: Q01DX009 (ip), vehicle: saline with Tween-80): 108 % of control | T/C (dose: 100.0 mg/kg/injection, schedule: Q01DX009 (ip), vehicle: saline with Tween-80): 101 % of control

c1cc[c]([Pb]([c]2ccccc2)([c]2ccccc2)[n]2cnc3cncnc32)cc1
T/C (dose: 5.0 mg/kg/injection, schedule: Q01DX001 (ip), vehicle: other): 103 % of control | T/C (dose: 10.0 mg/kg/injection, schedule: Q01DX001 (ip), vehicle: other): 95 % of control

NC(=O)C1OC(n2cnc3c(N)ncnc32)C(O)C1O (configuration not stated)
T/C (dose: 0.09 mg/kg/injection, schedule: Q01DX009 (ip), vehicle: saline): 101 % of control | T/C (dose: 0.19 mg/kg/injection, schedule: Q01DX005 (ip), vehicle: saline): 114 % of control | T/C (dose: 0.19 mg/kg/injection, schedule: Q01DX009 (ip), vehicle: saline): 100 % of control | T/C (dose: 0.39 mg/kg/injection, schedule: Q01DX009 (ip), vehicle: saline): 107 % of control | T/C (dose: 0.78 mg/kg/injection, schedule: Q01DX009 (ip), vehicle: saline): 103 % of control | T/C (dose: 1.56 mg/kg/injection, schedule: Q01DX009 (ip), vehicle: saline): 114 % of control

CC(=O)c1c(C)cc(=O)[nH]c1O
T/C [1]: 107 % of control | T/C [2]: 97 % of control | T/C [3]: 110 % of control

CCCCCC1(O)C2CCCC1CCC2 (configuration not stated)
T/C (dose: 100.0 mg/kg/injection, schedule: Q04DX003 (ip), vehicle: saline with Tween-80): 94 % of control | T/C (dose: 200.0 mg/kg/injection, schedule: Q04DX003 (ip), vehicle: saline with Tween-80): 97 % of control | T/C (dose: 400.0 mg/kg/injection, schedule: Q04DX003 (ip), vehicle: saline with Tween-80): 105 % of control

O=P(Oc1ccccc1)(OP(=O)(Oc1ccccc1)N(CCCl)CCCl)N(CCCl)CCCl (configuration not stated)
T/C (dose: 12.5 mg/kg/injection, schedule: Q01DX Z (ip), vehicle: methylcellulose (MC)): 97 % of control | T/C (dose: 25.0 mg/kg/injection, schedule: Q01DX Z (ip), vehicle: methylcellulose (MC)): 102 % of control | T/C (dose: 50.0 mg/kg/injection, schedule: Q01DX Z (ip), vehicle: methylcellulose (MC)): 96 % of control | T/C (dose: 100.0 mg/kg/injection, schedule: Q01DX Z (ip), vehicle: methylcellulose (MC)): 96 % of control | T/C (dose: 250.0 mg/kg/injection, schedule: Q01DX Z (ip), vehicle: other): 98 % of control | T/C (dose: 500.0 mg/kg/injection, schedule: Q01DX Z (ip), vehicle: other): 104 % of control

OCC(O)C(O)C(O)C(O)C(c1ccc(F)cc1)c1ccc(F)cc1 (configuration not stated)
T/C [4]: 98 % of control | T/C [1]: 106 % of control and 102 % of control | T/C [2]: 101 % of control | T/C [3]: 93 % of control

CCCCCCCCCCCNC(=O)CCl
T/C (dose: 75.0 mg/kg/injection, schedule: Q04DX003 (ip), vehicle: Klucel (hydroxypropylcellulose) (HPC)): 91 % of control | T/C (dose: 150.0 mg/kg/injection, schedule: Q04DX003 (ip), vehicle: Klucel (hydroxypropylcellulose) (HPC)): 92 % of control | T/C (dose: 300.0 mg/kg/injection, schedule: Q04DX003 (ip), vehicle: Klucel (hydroxypropylcellulose) (HPC)): 89 % of control

CCC(NC(=O)CCl)C(=O)O (configuration not stated)
T/C (dose: 100.0 mg/kg/injection, schedule: Q04DX002 (ip), vehicle: saline): 120 % of control | T/C (dose: 200.0 mg/kg/injection, schedule: Q04DX002 (ip), vehicle: saline): 103 % of control

ClC(C[n+]1ccccc1)c1ccccc1 (configuration not stated)
T/C [1]: 100 % of control

CN(C)C(=S)Oc1ccc(N)cc1
T/C [5]: 94 % of control | T/C [6]: 101 % of control | T/C [7]: 94 % of control

NCc1nc2ccccc2[nH]1
T/C [4]: 101 % of control | T/C [1]: 103 % of control | T/C [2]: 95 % of control | T/C [3]: 95 % of control

CC1=CC(=C(c2ccccc2)c2ccccc2)C=C(C)C1=O
T/C (dose: 12.0 mg/kg/injection, schedule: Q01DX009 (ip), vehicle: Klucel (hydroxypropylcellulose) (HPC)): 103 % of control | T/C (dose: 25.0 mg/kg/injection, schedule: Q01DX009 (ip), vehicle: Klucel (hydroxypropylcellulose) (HPC)): 107 % of control | T/C (dose: 50.0 mg/kg/injection, schedule: Q01DX009 (ip), vehicle: Klucel (hydroxypropylcellulose) (HPC)): 97 % of control | T/C (dose: 100.0 mg/kg/injection, schedule: Q01DX009 (ip), vehicle: Klucel (hydroxypropylcellulose) (HPC)): 100 % of control | T/C [5]: 102 % of control | T/C [6]: 102 % of control | T/C [7]: 122 % of control
